According to paper PMC12040169 (PLOS Biology, 2025):

assay: in vitro; settings: human, hela cells, % viability

SMILES | viability at 28.5 h, 10 µM [%]
Cn1ccc(C(=O)N2CCC[C@H](C(=O)c3cccs3)C2)n1 [CBK282412] | 98
CN(C)CCCNC(=O)CCc1ccccc1 [CBK263806] | 93
Clc1ccc(COc2cccc(CNCCN3CCOCC3)c2)cc1 [CBK278227C] | 85
COc1cccc(Cc2cccc(C3CCN(C(=O)Cc4ccccc4)CC3)n2)c1 [CBK286147] | 96.9
C[S+]([O-])CCNC(=O)c1cc(-c2ccc(F)cc2)no1 (stereo not drawn) [CBK283251] | 89.6
Cc1nc2nc(N)nn2c(C)c1CCC(=O)NCc1ccccc1 [CBK304986] | 95.7
COc1cccc(OCC(=O)NCC(c2ccsc2)N2CCCC2)c1 (stereo not drawn) [CBK304630] | 89.6
Cc1ncccc1COC(=O)N1Cc2ccccc2C1 [CBK200138] | 91.1
Cn1c2ccccc2c2cc(/C=C(/NC(=O)c3ccccc3)C(=O)Nc3cccc(O)c3)ccc21 [CBK261449] | 111
COc1cccc(C(NC(=O)C2CCN(Cc3cccs3)CC2)c2cnccn2)c1 (stereo not drawn) [CBK148572] | 106
Fc1ccccc1-c1nc2cnccn2c1NCc1ccco1 [CBK283681] | 84.9
O=C(NC(=O)c1ccc(F)c(Cl)c1)Nc1nnc(C(F)(F)F)s1 [CBK076830] | 88.6
O=C(Nc1cc(Cl)cc(Cl)c1)c1csnn1 [CBK057759] | 88.1
Cc1cc(C)cc(N(CC(=O)Nc2ccccc2-c2ccccc2)S(=O)(=O)c2ccccc2)c1 [CBK265933] | 92.4
O=C(Nc1ccccc1)OCC(CN1CCCCC1)OC(=O)Nc1ccccc1 (stereo not drawn) [CBK023067C] | 103
O=C(NCCCn1ccnc1)c1cc(-c2ccccc2Cl)nc2ccccc12 [CBK262656] | 95.2
Cc1ccc(S(=O)(=O)N2CCOCC2)cc1C(=O)Oc1cccc2cccnc12 [CBK269726] | 98
OCCOc1cccnc1OCC1CC1 [CBK001461] | 89.4
CCN(CC1CCOCC1)C(=O)Cn1c(C)cc(=O)c2ccccc21 [CBK307230] | 88.7
COC(=O)NCCc1c[nH]c2ccc(OC)cc12 [CBK084597] | 98
O=S(=O)(c1sccc1F)N1CCOCC1c1cccc(F)c1 (stereo not drawn) [CBK304730] | 82.6
O=C(O)c1cccc(CSc2nnc(-c3ccncc3)o2)c1 [CBK266310] | 106

SMILES | viability at 28.5 h, 10 µM [%]
O=C(NC[C@H]1C[C@@H]2CC[N@]1C[C@@H]2CN1CCN(c2ccccn2)CC1)c1ccco1 [CBK288867] | 107
CCCC(=O)c1ccc(S(=O)(=O)N2CCCN(Cc3ccc(F)c(C#N)c3)CC2)cc1 [CBK062910] | 114
Cn1nccc1-c1cc(C(=O)NC2(C)CCC2)c2ccccc2n1 [CBK281605] | 92.7
O=S(=O)(c1ccc(C(F)(F)F)cc1Cl)N1CCN(Cc2ccc(F)cc2F)CC1 [CBK062739] | 107
Clc1ccc(COc2cccc(CNCc3ccccn3)c2)c(Cl)c1 [CBK270060C] | 88.8
CS(=O)(=O)N(Cc1ccccc1)c1ccc(C(=O)Nc2ccccc2C(=O)O)cc1 [CBK264117] | 108
Nc1c2c(nc3ccccc13)CCCC2O (stereo not drawn) [CBK008271F] | 95.7
CCOC(=O)N1CCN(CCCCc2ccc(F)cc2)CC1 [CBK025002C] | 105
Cc1ccccc1N1CC(C(=O)Nc2cccnc2)CC1=O (stereo not drawn) [CBK288138] | 88.3
CCN(CC)CCNC(=O)N(CC)Cc1ccncc1 [CBK155151] | 105
C#CCNC(=O)C1CCN(c2nc3ccccc3n2CC)CC1 [CBK283923] | 89.4
Cn1cc(C(=O)Nc2ccc3c(c2)CN(Cc2ccccc2)C3)cn1 [CBK281838] | 94.8
Cc1nn(CC(=O)NC2CC2)c(=O)c2cc3sccc3n12 [CBK284047] | 94.9
COc1ccc(C(NC(=O)c2ccc(Cn3cncn3)cc2)c2ccccc2)cc1 (stereo not drawn) [CBK285749] | 106
COc1ccc(-n2c(S)nnc2-c2cc(C(C)(C)C)n[nH]2)cc1 [CBK269071] | 97.9
O=C(CCCN1C(=O)/C(=C/c2ccc3c(c2)OCO3)SC1=S)Nc1ccc([N+](=O)[O-])cc1 [CBK264623] | 105
O=C(N[C@@H](Cn1cc(Cl)c(=O)[nH]c1=O)C(=O)O)C1CCCCC1 [CBK289648] | 98.7
Cc1noc(C)c1C(=O)Nc1sc2c(c1C(=O)NCc1ccco1)CCCCCC2 [CBK268112] | 99.3
O=C(O)c1ccc(/C=N/N2CCN(Cc3ccc(Cl)cc3)CC2)cc1 [CBK263561] | 90.5
O=C(O)Cc1csc(SCc2cc(F)cc3c2OC(c2ccccc2)OC3)n1 (stereo not drawn) [CBK295158] | 107
NS(=O)(=O)c1cc(C(=O)OCCNC(=O)c2ccccc2)c(Cl)cc1Cl [CBK265193] | 88.9
O=C(NCCn1cncn1)C1(c2ccccc2F)CC1 [CBK283087] | 87

SMILES | viability at 28.5 h, 10 µM [%]
O=C(CCc1cccc(F)c1)Nc1cnc(-c2ccc(F)cc2)c(-c2ccoc2)n1 [CBK037077] | 85.3
COCCN(Cc1cc2ccc(C)cc2nc1O)C(=O)c1cccs1 [CBK269324] | 100
N#Cc1c(NC(=O)c2cc(S(=O)(=O)N3CCOCC3)c(Cl)cc2Cl)sc2c1CCCC2 [CBK263204] | 95.7
c1csc(CNc2cncc(-c3ccncc3)n2)c1 [CBK065238] | 97.3
O=C(CCS(=O)(=O)Cc1ccccc1)n1nnc2ccccc21 [CBK268324] | 99.4
CS(=O)(=O)c1ccc(-c2ccc(OCC3CCN(C(=O)c4cccc(C#N)c4)CC3)nc2)cc1 [CBK162283] | 93.3
CC(=O)c1c(C)[n+]([O-])c2cc(Cl)c(Cl)cc2[n+]1[O-] [CBK265017] | 108
CCCc1csc(C2CN3CCCC3CO2)n1 (stereo not drawn) [CBK304799] | 88.3
O=C(CSCc1ccc(Cl)cc1Cl)Nc1c[nH]c(=O)[nH]c1=O [CBK126912] | 90.4
C/C(=N\NC(N)=S)C(=O)O [CBK261575] | 102
Cc1ccccc1CSCC(=O)Nc1c[nH]c(=O)[nH]c1=O [CBK269790] | 86.8
COCCn1c(SCC(=O)N2CCNC2=O)nc2ccccc21 [CBK305851] | 97.3
CCCN1CCC(NC(=O)Cn2nnc3ccccc3c2=O)CC1 [CBK305581] | 102
O=C(c1cccs1)N1CCCC1c1nc2ccccc2[nH]1 (stereo not drawn) [CBK284006] | 81.8
Fc1cc(F)c(OCCCCOc2nccnc2N2CCNCC2)cc1F [CBK028624T] | 105
Cc1cc(C)n(CCCNC(=O)Cn2cnc3sc(C)c(C)c3c2=O)n1 [CBK305852] | 76.2
COC(=O)c1cccc(CN2CCC3(CC2)NC(=O)Cc2ccccc23)c1 [CBK039807] | 101
COc1ccc2c3c([nH]c2c1)C(C)N(CCC(=O)NN)CC3 (stereo not drawn) [CBK261726] | 93.2
O=C(O)/C=C/C(=O)NNC(=O)c1ccccc1O [CBK261789] | 97.4
O=C(Cn1cc(Br)ccc1=O)NC1CCN(CCc2ccccc2)CC1 [CBK305887] | 99.5
CC(C)(C)c1ccc(-c2cnc3ncccc3c2N)cc1 [CBK083684] | 99.9
CC(C)Cc1ccc(S(=O)(=O)Nc2ccc3[nH]c(=O)[nH]c3c2)cc1 [CBK270131] | 94.3

SMILES | viability at 28.5 h, 10 µM [%]
CCN1C(=O)C(F)(CC)C(=O)c2ccccc21 (stereo not drawn) [CBK098854] | 107
COc1ccc(N2C(=O)C3C(CC(C)C)NC4(C(=O)N(CC(=O)Nc5ccc(C)cc5)c5ccccc54)C3C2=O)cc1 (stereo not drawn) [CBK266034] | 95.9
COc1ccc(-c2cc(C(=O)Nc3ccc4ncccc4c3)cnc2-c2ccccc2)cc1 [CBK036623] | 106
O=C1CCC(C(=O)Nc2cnc(-c3cccc(C(F)(F)F)c3)c(-c3cccnc3)n2)=NN1 [CBK036950] | 88.3
COc1ccc(CCNc2nc3c([nH]2)c(=O)n(C)c(=O)n3C)cc1 [CBK269897] | 85.5
CN1CCN(C)C(COc2cc(C(F)(F)F)ccn2)C1 (stereo not drawn) [CBK113460] | 90.7
O=C(NC(NCc1ccco1)C(Cl)(Cl)Cl)c1ccc(Br)cc1 (stereo not drawn) [CBK262174] | 89
N/C(=N\OC(=O)COc1cccc2ccccc12)c1ccccn1 [CBK262999] | 96.2
O=C(O)CCC(=O)NCC(=O)c1ccc(F)cc1 [CBK057384] | 76.6
CCOC(=O)c1c(C)nc(-c2ccccc2)nc1NC(=O)C(C)C [CBK028118] | 90.1
Cc1nn(C)cc1-c1cncn1Cc1ccc2c(c1)CCCO2 [CBK281797] | 90.4
CN(C)c1ccc(Nc2cc(-c3cccc4ccccc34)ncn2)cc1 [CBK037835] | 46.8
Brc1ccc(CN2CCN(Cc3c[nH]c4ccccc34)CC2)cc1 [CBK027622] | 85.4
CCn1c(CC2CCN(C(=O)CCn3nnnc3C)CC2)nn(C)c1=O [CBK307400] | 104
Cc1ccccc1-c1ccc(C(=O)N(C)CCN(C)C)c(N(C)C)n1 [CBK106090] | 96
CC(C)C1C2CCCCC2=NN1C(=O)/C=C/C(=O)O (stereo not drawn) [CBK286862] | 93.1
Cc1cc(C)nc(N2CCC(CC(=O)NCc3ccccc3N3CCCC3)CC2)n1 [CBK286071] | 95.5
CCC(=O)N1CCN(CCNC=C2C(=O)CC(c3cccs3)CC2=O)CC1 (stereo not drawn) [CBK264817] | 97
Cc1cc(C)n(-c2ccc3nnc(CCC(=O)O)n3n2)n1 [CBK307616] | 97
O=C(COc1ccccc1[N+](=O)[O-])Nc1ccc(Cl)c(-c2nc3ncccc3o2)c1 [CBK268811] | 88.8
CC(=O)N(C)c1nc(-c2ccccc2)ccc1C(=O)Nc1ccc2c(c1)OCO2 [CBK106342] | 96.8
Cc1nn(C)c(C)c1CN(C)S(=O)(=O)Cc1ccc(F)cc1 [CBK281590] | 86.8

same assay, conditions: human, hela cells, % viability, bulk resorufin, single well

SMILES | viability at 28.5 h, 10 µM [%]
C[C@@H]1[C@H]2Cc3ccc(O)cc3[C@]1(C)CCN2Cc1ccoc1 [CBK005262G] | 103
O=C(Nc1ccccc1Br)N1CCC2(CC1)OCCO2 [CBK043644] | 90.7
